Read-outs that look alike come from different tables or passages of the source.
How the values were obtained:
[1] = system: corn plants (variety NK OCTET); assay: Reduced plant water use in corn (foliar spray, repeated weighing of pots); type: in vivo; conditions: Zea mays, corn plants sprayed at 500 μM, average of 6 pots
Experimental: Compounds were tested for their effect on reducing plant water use as follows. The compounds were applied by foliar spray to 12 day old corn plants (variety NK OCTET) grown in controlled environment plant growth chambers. All compounds were applied using an emulsifiable concentrate (EC) formulation that was diluted to the desired concentrations with water containing 0.4% of the adjuvant rape seed methyl ester. Plant water use during the day was assessed by repeated weighing of the pots in which the plants were grown before and after application of the compounds at the indicated times (expressed in days after application (DAA)). The water use data before application was used to correct any differences in water use arising due to non-treatment effects (e.g. due to differences in plant size). The untransformed water use values were subjected to an analysis of covariance, fitting the effect of treatment and using the baseline water use 1 day before application as a covariate. Application of the chemicals (0 DAA) takes place approximately between 08:00 and 09:30 a.m. WU is measured within day time (chamber light is on 06:00 to 20:00) at these timepoints: 0 DAA a.m. (10:30-12:50), 0 DAA p.m. (14:00-19:50), 1 DAA a.m. (07:30-12:50), 1 DAA p.m. (14:00-19:50), 2 DAA a.m. (07:30-12:50) and 2 DAA p.m. (14:00-19:50). The cumulative total WU (0-2.5 DAA) is calculated by summing the WU data mentioned above.

[2] = system: soybean plants (variety S20-G7); assay: Reduced plant water use in soybean (foliar spray, repeated weighing of pots); type: in vivo; conditions: Glycine max, foliar, Table B1, sprayed at 500 μM, vs negative control
Experimental: Compounds were tested for their effect on reducing plant water use as follows. Each compound was dissolved in a blank emulsifiable concentrate (EC) formulation that was then diluted to the desired concentration with water containing additional surfactant (EXTRAVON 1 g/20 L). The compounds were applied by foliar spray to 12 day old soybean plants (variety S20-G7) grown in controlled environment plant growth chambers. Plant water use during the day was assessed by repeated weighing of the pots in which the plants were grown before and after application of the compounds at the indicated times (expressed in days after application (DAA)). The water use data before application was used to correct any differences in water use arising due to non-treatment effects (e.g. due to differences in plant size). The untransformed water use values were subjected to an analysis of covariance, fitting the effect of treatment and using the baseline water use 1 day before application as a covariate.
The results are expressed compared to negative control treatment (diluted EC formulation without active ingredient but with EXTRAVON 1 g/20 L).
Application of the chemicals (0 DAA) takes place approximately between 08:00 and 09:30 a.m. WU is measured within day time (chamber light is on 06:00 to 20:00) at these timepoints: 0 DAA a.m. (10:30-12:50), 0 DAA p.m. (14:00-19:50), 1 DAA a.m. (7:30-12:50), 1 DAA p.m. (14:00-19:50), 2 DAA a.m. (07:30-12:50) and 2 DAA p.m. (14:00-19:50). The cumulative total WU (0-2.5 DAA) is calculated by summing the WU data mentioned above.

[3] = 0 h, water use during day time vs negative control, 0 DAA a.m. (10:30-12:50), read-out: % WU 0 DAA AM
[4] = 0 h, water use during day time vs negative control, 0 DAA p.m. (14:00-19:50), read-out: % WU 0DAA PM
[5] = 24 h, water use during day time vs negative control, 1 DAA a.m. (07:30-12:50), read-out: % WU 1DAA AM
[6] = 24 h, water use during day time vs negative control, 1 DAA p.m. (14:00-19:50), read-out: % WU 1DAA PM
[7] = 48 h, water use during day time vs negative control, 2 DAA a.m. (07:30-12:50), read-out: % WU 2 DAA AM
[8] = 48 h, water use during day time vs negative control, 2 DAA p.m. (14:00-19:50), read-out: % WU 2 DAA PM
[9] = 60 h, cumulative total water use 0-2.5 DAA (sum of the time points) vs negative control, read-out: % WU Total 0 to 2.5 DAA

SMILES | change in vivo at 500 µM [1, 3] [%] | change in vivo at 500 µM [1, 4] [%] | change in vivo at 500 µM [1, 5] [%] | change in vivo at 500 µM [1, 6] [%] | change in vivo at 500 µM [1, 7] [%] | change in vivo at 500 µM [1, 8] [%] | change in vivo at 500 µM [1, 9] [%] | change in vivo at 500 µM ([2]; 0 h, 0 DAA a.m. (10:30-12:50), read-out: % WU 0 DAA AM) [%] | change in vivo at 500 µM ([2]; 24 h, 1 DAA a.m. (7:30-12:50), read-out: % WU 1DAA AM) [%] | change in vivo at 500 µM ([2]; 24 h, 1 DAA p.m. (14:00-19:50), read-out: % WU 1DAA PM) [%] | change in vivo at 500 µM ([2]; 48 h, 2 DAA a.m. (07:30-12:50), read-out: % WU 2 DAA AM) [%] | change in vivo at 500 µM ([2]; 48 h, 2 DAA p.m. (14:00-19:50), read-out: % WU 2 DAA PM) [%] | change in vivo at 500 µM ([2]; 60 h, cumulative total WU (0-2.5 DAA), read-out: % WU Total 0 to 2.5 DAA) [%]
CCCN1C(=O)CCc2cc(CNS(=O)(=O)CCCC(F)(F)F)ccc21 [Compound 3.020, 4,4,4-trifluoro-N-[(2-oxo-1-propyl-3,4-dihydroquinolin-6-yl)methyl]butane-1-sulfonamide] | -19.2 | -13.7 | -14.8 | -12.1 | -11.5 | -8.5 | -12.7 | -19.3 | -10.1 | -5.5 | -7.4 | -4.2 | -8.5
CCCN1C(=O)CCc2cc(CNS(=O)(=O)/C=C/c3ccccc3F)ccc21 [Compound 3.056, (E)-2-(2-fluorophenyl)-N-[(2-oxo-1-propyl-3,4-dihydroquinolin-6-yl)methyl]ethenesulfonamide] | -8.4 | -2.7 | -5.6 | -4.4 | -4.7 | -3.2 | -4.6 |  |  |  |  |  | 
CCCN1C(=O)CCc2cc(CNS(=O)(=O)CCC)ccc21 [Compound 3.062, N-[(2-oxo-1-propyl-3,4-dihydroquinolin-6-yl)methyl]propane-1-sulfonamide] | -17.8 | -13 | -13 | -9.8 | -8.1 | -6.3 | -10.5 |  |  |  |  |  | 
C/C=C/CS(=O)(=O)NCc1ccc2c(c1)CCC(=O)N2CCC [Compound 3.066, (E)-N-[(2-oxo-1-propyl-3,4-dihydroquinolin-6-yl)methyl]but-2-ene-1-sulfonamide] | -10.8 | -7.1 | -7.1 | -6.8 | -4.7 | -5.5 | -6.4 |  |  |  |  |  | 
